pIC50: −log10 of the molar value. Where “and” joins values, the source holds several entries; their conditions need not be identical. Identical values can stand only once.
System: 633275-114-R-J1-PDC complex spheroids, viability
Assay: Anticancer human tumor 633275-114-R-J1-PDC patient-derived endometrial adenocarcinoma cell line growth inhibition [GQUAD]
Details: for viability, T/C: stronger effect = lower value; for pIC50: curve of compound
From the text: DNA G-quadruplex Stabilizer Agents in Combinations in Complex Spheroids
A high-throughput screen of multi-cell type tumor spheroids was designed to identify active combinations of DNA G-quadruplex stabilizer agents and targeted small molecules. Complex spheroids include a stromal component modeled by human endothelial cells (HUVEC) and fibroblasts modeled by human mesenchymal stem cells (MSCs). The concentration ranges selected for each drug and investigational agent were based upon clinically achievable concentrations if the clinical Cmax of the agent was known.
Compounds. The drugs and investigational agents: pidnarulex (CX-5461; NSC782164), APTO-253 (NSC789042), BRACO-19 (NSC847499), peposertib (NSC802822), ceralasertib (NSC780249), elimusertib (NSC800525), camonsertib (NSC841442), AZD-1390 (NSC803789), olaparib (NSC753686), talazoparib (NSC767125), ART-558 (NSC835418), sotorasib (NSC818433), MRTX-1133 (NSC836407), SN-38 (NSC673596), topotecan (NSC609699), etoposide (NSC141540), doxorubicin (NSC123127), gemcitabine (NSC613327), 5-fluorouracil (NSC19893), paclitaxel (NSC125973), vemurafenib (NSC761431), panobinostat (NSC761190), R-306465 (JNJ-16241199; NSC773264), adavosertib (NSC754352), TP-3654 (NSC805149), carboplatin (NSC241240), KSQ-4279 (NSC840948), and staurosporine (NSC755774) were obtained from the National Cancer Institute (NCI) Developmental Therapeutics Program Chemical Repository (34). The FDA-approved anticancer drug set is available from the NCI Developmental Therapeutics Program. […] The stock solutions were prepared in dimethyl sulfoxide (DMSO, Sigma-Aldrich, St. Louis, MO, cat. D2650) at 800-fold the tested concentration and stored at -70 degrees C prior to their use. All drugs and investigational agents were tested over a range starting from a high concentration at or near the clinical Cmax and decreasing in half-log increments. If the clinical Cmax for an agent had not been determined, the highest concentration tested was 10 microM.
2.3 Cell Culture. All cells were maintained in an incubator at 37 degrees C and 5% CO2 with 95% humidity. The PDC lines were cultured according to standard operating procedures established by the NCI PDMR. All PDCs were thawed and cultured in Matrigel-coated flasks prepared with a working solution of 1X Ham's F-12 nutrient mix, without supplementation (Invitrogen, cat. 11765054), 100 U/mL penicillin-streptomycin (Invitrogen, cat. 15140122), and 2.5% Matrigel (Corning Inc., cat. 354248) for the first three passages. The 857933-349-R-J2-PDC line was cultured in 6C/Colon 1B media, which includes advanced DMEM/F-12 (Thermo Fisher Scientific, cat. 12634028), 10 mM HEPES (Thermo Fisher Scientific, cat. 15630080), 1X GlutaMAX supplement (Thermo Fisher Scientific, cat. 35050061), 0.1 mg/mL primocin (InvivoGen, cat. ant-pm-2), 10% defined fetal bovine serum, heat inactivated (HyClone Laboratories Inc., cat. SH30070.03HI), 50% L-WRN conditioned media (ATCC, cat. CRL-3276), 1.25 mM N-Acetyl-L-cysteine (Sigma-Aldrich, cat. A9165), 10 mM nicotinamide (Sigma-Aldrich, cat. N0636), 1X B-27 supplement (Thermo Fisher Scientific, cat. 17504044), 1X N-2 supplement (Thermo Fisher Scientific, cat. 17502048), 10 microM Y-27632 dihydrochloride (Tocris Bioscience, cat. 1254), and 50 ng/mL human EGF recombinant protein (Thermo Fisher Scientific, cat. PHG0311). The 485176-168-R4-J1-PDC line was cultured in Panc media, which includes all 6C/Colon 1B media components plus 100 ng/mL human FGF-10 (Thermo Fisher Scientific, cat. 100-26), 500 nM SB-431542 (Selleckchem, cat. S1067), and gastrin (Tocris, cat. 3006).
[…]
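Note: spheroids exposed to the agents for seven days.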
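Throughout, for viability, T/C: percent of DMSO vehicle control viability which is 100%.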

SMILES | viability, T/C (compound 0.0316 µM) | viability, T/C (compound 0.1 µM) | viability, T/C (compound 0.316 µM) | viability, T/C (compound 1 µM) | viability, T/C (compound 3.16 µM) | viability, T/C (compound 10 µM) | pIC50 | viability, T/C (compound 0.000999 µM) | viability, T/C (compound 0.00316 µM) | viability, T/C (compound 0.00999 µM) | viability, T/C (compound 0.0999 µM) | IC50 (compound alone, run of 03/26/2024)
C#Cc1c(F)ccc2cc(O)cc(-c3ncc4c(N5CC6CCC(C5)N6)nc(OCC56CCCN5CC(F)C6)nc4c3F)c12 (stereo unspecified) | 113% and 109% and 110% | 97.5% and 81% and 88.5% | 89.9% and 97.2% and 102% | 91.7% and 88.4% and 80.4% | 89.1% and 69.1% and 78.6% | 72.7% and 64.9% and 67.2% | < 5.00 | – | – | – | – | –
C=CC(=O)N1CCN(c2nc(=O)n(-c3c(C)ccnc3C(C)C)c3nc(-c4c(O)cccc4F)c(F)cc23)C(C)C1 (stereo unspecified) | 98.6% and 102% and 105% | 101% and 93.9% and 95.3% | 109% and 115% and 99.2% | 105% and 90.3% and 92% | 111% and 93.5% and 105% | 85% and 77% and 90.2% | < 5.00 | – | – | – | – | –
C=CCn1c(=O)c2cnc(Nc3ccc(N4CCN(C)CC4)cc3)nc2n1-c1cccc(C(C)(C)O)n1 | 103% (2×) and 101% | 85.9% and 89.3% and 91.3% | 73.9% and 70.5% and 70.1% | 35.7% and 39.9% and 32.9% | 20.4% and 22.2% and 19.9% | 14.6% and 16.2% and 13.9% | 6.19 and 6.17 and 6.23 | – | – | – | – | –
CC(=O)O[C@H]1C(=O)[C@@]2(C)[C@H]([C@H](OC(=O)c3ccccc3)[C@]3(O)C[C@H](OC(=O)[C@H](O)[C@@H](NC(=O)c4ccccc4)c4ccccc4)C(C)=C1C3(C)C)[C@]1(OC(C)=O)CO[C@@H]1C[C@@H]2O | 47.5% and 49.6% and 46.9% | 22.7% and 22.6% and 27.5% | 18.4% and 21% and 21.7% | 20.4% and 20% and 23.4% | 18.8% and 21.8% and 21.4% | 19.4% and 21.5% and 20.4% | > 7.50 | – | – | – | – | –
CC(C)(O)C1CCC(Nc2ccc3ncc(-c4cccc(C(F)(F)F)c4)n3n2)CC1 (stereo unspecified) | 103% and 106% (2×) | 94.8% and 101% and 89.9% | 95.2% and 87.9% and 105% | 68.7% and 71.4% and 61.6% | 29.8% and 33.2% and 29.4% | 35% and 33.7% and 39.8% | 5.74 and 5.70 and 5.79 | – | – | – | – | –
CC(C)n1c(=O)n(C)c2cnc3cc(F)c(-c4ccc(OCCCN5CCCCC5)nc4)cc3c21 | 111% and 107% and 105% | 102% and 105% and 94.4% | 112% and 103% and 93.6% | 95.5% and 97.2% and 101% | 96.8% and 95.2% and 92.5% | 69.9% and 73.6% and 72.5% | < 5.00 | – | – | – | – | –
CC1COCCN1c1cc(-c2ccnn2C)c2ccnc(-c3ccn[nH]3)c2n1 (stereo unspecified) | 81% and 83.4% and 86.5% | 59.5% and 53.2% and 55.1% | 38.6% and 39.2% and 35.8% | 26.8% and 24.3% and 27.8% | 19.3% (2×) and 20.4% | 18% and 15.8% and 15.7% | 6.77 and 6.86 and 6.85 | – | – | – | – | –
CC1COCCN1c1cc(C2(O)CC3CCC(C2)O3)c2cnn(-c3ccn[nH]3)c2n1 (stereo unspecified) | 70% and 78% and 77.7% | 54.3% and 51.8% and 50.7% | 29% and 32.2% and 29.2% | 19.2% and 21% and 21.1% | 13.5% (2×) and 15.8% | 8.78% and 10.1% and 9.68% | 6.93 and 6.96 and 7.00 | – | – | – | – | –
CC1COCCN1c1cc(C2(S(C)(=N)=O)CC2)nc(-c2ccnc3[nH]ccc23)n1 (stereo unspecified) | 94.8% and 102% and 108% | 97.4% and 89.5% and 94.1% | 98.2% and 98.4% and 91.8% | 79.9% and 72.7% and 79.3% | 49.4% and 51.8% and 86.4% | 31% and 33.7% and 32.8% | 5.52 and 5.49 and 5.18 | – | – | – | – | –
CCCS(=O)(=O)Nc1ccc(F)c(C(=O)c2c[nH]c3ncc(-c4ccc(Cl)cc4)cc23)c1F | 101% and 96% and 115% | 91.7% and 116% and 104% | 101% and 107% and 113% | 105% and 106% and 99.1% | 101% and 87.6% and 96.9% | 42.9% and 43.6% and 32.6% | 5.06 and 5.07 and 5.14 | – | – | – | – | –
CC[C@@]1(O)C(=O)OCc2c1cc1n(c2=O)Cc2cc3c(CN(C)C)c(O)ccc3nc2-1 | 68.2% and 70.6% and 66.2% | – | 37.1% and 38.9% and 35.8% | – | – | – | 7.14 and 7.10 and 7.13 | 95.5% and 106% and 99.4% | 97.2% and 89% and 87.9% | 86% and 86.5% and 92% | 41.4% and 40.2% and 45% | –
CCc1c2c(nc3ccc(O)cc13)-c1cc3c(c(=O)n1C2)COC(=O)[C@]3(O)CC | 32.8% and 34.7% and 35.9% | – | 23.7% (2×) and 24.4% | – | – | – | 8.52 and 8.46 and 8.53 | 72.9% and 83.1% and 65.5% | 47.6% and 49.1% and 47% | 36.6% and 36.4% and 38.1% | 30% and 24.7% and 28.8% | –
CN(C)c1ccc(Nc2c3ccc(NC(=O)CCN4CCCC4)cc3nc3cc(NC(=O)CCN4CCCC4)ccc23)cc1 | 102% [middle of 12 runs] | 101% [middle of 12 runs] | 103% [middle of 12 runs] | 94.3% [middle of 12 runs] | 81.8% [middle of 12 runs] | 36.6% [middle of 12 runs] | – | – | – | – | – | 7.24 µM [middle of 12 runs]

From PubChem BioAssay AID2060505 (Molecular Pharmacology Branch, DTP, NCI, 2025)
